According to ChEMBL document CHEMBL4715749, “Synthesis of 17β-N-arylcarbamoylandrost-4-en-3-one derivatives and their anti-proliferative effect on human androgen-sensitive LNCaP cell line” (Eur J Med Chem, 2016):
Calls of active or inactive are those of the source. The calls are words filed in the database; no cut-off is given here.

Columns and labels:
[1] = tested on: LNCaP; test: Antiproliferative activity against androgen-sensitive human LNCAP cells assessed as inhibition of DHT-induced cell growth at 50 uM incubated for 48 hrs by sulforhodamine B assay relative to control; assay type: functional
[2] = tested on: LNCaP; test: Antiproliferative activity against androgen-sensitive human LNCAP cells assessed as inhibition of cell growth at 50 uM incubated for 48 hrs by sulforhodamine B assay relative to control; assay type: functional
[3] = tested on: LNCaP; test: Antiproliferative activity against androgen-sensitive human LNCAP cells assessed as inhibition of testosterone-induced cell growth at 50 uM incubated for 48 hrs by sulforhodamine B assay relative to control; assay type: functional
[4] = Cytotoxicity against Wistar rat PBMC assessed as inhibition of cell growth at 50 uM incubated for 24 hrs by sulforhodamine B assay relative to control; assay type: tissue-based; conditions: for Activity: pbmc, 24 h, 50 µM; for inhibition at 24 h, 50 µM: Wistar, peripheral blood mononuclear cells (PBMC)
[5] = tested on: PC-3; test: Growth inhibition of androgen-insensitive human PC3 cells incubated for 48 hrs by sulforhodamine B assay; assay type: functional
[6] = tested on: LNCaP; test: Growth inhibition of androgen-sensitive human LNCAP cells incubated for 48 hrs by sulforhodamine B assay; assay type: functional

Row | Compound | inhibition at 50 µM [1] | inhibition at 50 µM [2] | inhibition at 50 µM [3] | Activity [4] | inhibition at 24 h, 50 µM [4] | GI50 [5] | GI50 [6] | inhibition [1]
1 | C[C@]12CC[C@H]3[C@@H](CCC4=CC(=O)CC[C@@]43C)[C@@H]1CC[C@@H]2C(=O)Nc1ccc(Cl)cc1 | 13.4% | -6.1% | 1.6% | Non-Toxic | – | – | – | –
2 | COc1ccc(NC(=O)[C@H]2CC[C@H]3[C@@H]4CCC5=CC(=O)CC[C@]5(C)[C@H]4CC[C@]23C)cc1 | 29.7% | 48.7% | 38.6% | – | 7.9% | – | – | –
3 | CC(=O)N1CCN(c2ccc(OCC3COC(Cn4ccnc4)(c4ccc(Cl)cc4Cl)O3)cc2)CC1 (centres undefined) [KETOCONAZOLE] | 68.2% | 82.7% | 76% | – | – | 11.7 µM | 25 µM | –
4 | C[C@]12CC[C@H]3[C@@H](CCC4=CC(=O)CC[C@@]43C)[C@@H]1CC[C@@H]2C(=O)Nc1cc(C(F)(F)F)cc(C(F)(F)F)c1 | 100% | 100% | 100% | – | 9.1% | 14.2 µM | 12.8 µM | –
5 | CC(C)(C)NC(=O)[C@H]1CC[C@H]2[C@@H]3CC[C@H]4NC(=O)C=C[C@]4(C)[C@H]3CC[C@]12C [FINASTERIDE] | – | 34.6% | 21.1% | – | 3.7% | – | – | inactive
6 | C[C@]12CC[C@H]3[C@@H](CCC4=CC(=O)CC[C@@]43C)[C@@H]1CC[C@@H]2C(=O)Nc1ccccc1 | 59.4% | 40.9% | 66.2% | – | 8.7% | – | – | –
7 | C[C@]12CC[C@H]3[C@@H](CCC4=CC(=O)CC[C@@]43C)[C@@H]1CC[C@@H]2C(=O)N1CCc2ccccc21 | 52.6% | 69.1% | 49.9% | Non-Toxic | – | – | – | –
8 | C[C@]12CC[C@H]3[C@@H](CCC4=CC(=O)CC[C@@]43C)[C@@H]1CC[C@@H]2C(=O)Nc1nccs1 | 100% | 100% | 100% | – | 16.8% | 6.6 µM | 16 µM | –
9 | CC(C)C(=O)Nc1ccc([N+](=O)[O-])c(C(F)(F)F)c1 [FLUTAMIDE] | 25.1% | -3.4% | 29.6% | Non-Toxic | – | – | – | –
10 | C[C@]12CC[C@H]3[C@@H](CCC4=CC(=O)CC[C@@]43C)[C@@H]1CC[C@@H]2C(=O)Nc1ccc(F)cc1 | 29% | 29.1% | 44.3% | – | 4.1% | – | – | –
11 | Cc1ccc(NC(=O)[C@H]2CC[C@H]3[C@@H]4CCC5=CC(=O)CC[C@]5(C)[C@H]4CC[C@]23C)cc1 | 27.5% | 25.6% | 43.3% | – | 13% | – | – | –
